Measured values taken from patent publication US12545652B2, “Crystalline forms of a TYK2 inhibitor” (Sareum Limited, priority 2020, dated 2026).
Values after ≈ are worked out from the molar mass of the structure shown.

Key:
Format in all cases: physicochemical
[1] = Solubility at 25° C. by HPLC of filtrates after equilibration of Form A in solvents; details: for solubility: 25 °C, organic solvent or mixture, thermodynamic from solid
[2] = Compression stability test (10×10^4N force)
Method: Compression stability tests were carried out on samples from two batches of crystalline Form A and samples from two batches of Crystalline Form B. One pair of samples of Form A and Form B was subjected to compression under 10×10^4N force for 23 and 23¾ hours respectively to assess the impact upon form fate and chemical stability.
The other pair of samples of Form A and Form B was subjected to similar compression pressures over an extended duration of 7 days to assess the impact of prolonged compression force upon form fate and chemical stability.

[3] = Rapidly cooled, reverse anti-solvent addition crystallisation at −10° C., observations and form fate by XRPD; details: for Observation: −10° C., 30 vol. anti-solvent; for Crystalline Form fate by XRPD: Reverse addition to anti-solvent at −10° C.
Method: Anti-solvent crystallisation was carried out by dissolving 2-(2,6-dichlorophenyl)-5-[4-(1,1-dioxo-1,4-thiazinane-4-carbonyl)anilino]oxazole-4-carboxamide in a solvent with heating, clarifying the solution and adding cold anti-solvent using the following method.
2-(2,6-dichlorophenyl)-5-[4-(1,1-dioxo-1,4-thiazinane-4-carbonyl)anilino]oxazole-4-carboxamide, 4×153-155 mg, was weighed into four crystallisation tubes and a different solvent (see Table 10) was charged into each. The mixtures were heated to 60° C. to achieve dissolution and then clarified.
Three anti-solvents (see Table 10), 1.5 ml, were each charged to four crystallisation tubes and cooled to −10° C.
The clarified solutions of 2-(2,6-dichlorophenyl)-5-[4-(1,1-dioxo-1,4-thiazinane-4-carbonyl)anilino]oxazole-4-carboxamide at 60° C. were charged to the cold anti-solvents in aliquots containing ca. 50 mg of the compound (into ca. 30 vol. anti-solvent) and immediate observations were noted.
The resulting mixtures were equilibrated at −10° C. for ca. 22 hours, observations were made and the solids were isolated. All isolated solids were dried in vacuo under air for ca. 20 minutes and then dried in vacuo at 45° C. for 23½ hours.

- Solubility at 25° C. ([1]; 2-Chlorobutane): 290 µg/mL (≈ 0.569 mM)
- solubility ([1]; 4:1 IPA/water, 4:1 IPA/water): 7650 µg/mL (≈ 15 mM)
- solubility ([1]; 4:1 MeCN/water, 4:1 MeCN/water): 19800 µg/mL (≈ 38.8 mM)
- Solubility at 25° C. ([1]; 4:1 THF/water): >67000 µg/mL
- Solubility at 25° C. ([1]; Anisole): 10610 µg/mL (≈ 20.8 mM)
- solubility ([1]; CPME): 1870 µg/mL (≈ 3.67 mM)
- Solubility at 25° C. ([1]; Cyclohexane): 10 µg/mL (≈ 0.0196 mM)
- Solubility at 25° C. ([1]; DCM): 22830 µg/mL (≈ 44.8 mM)
- solubility ([1]; EtOAc): 6640 µg/mL (≈ 13 mM)
- solubility ([1]; EtOH): 5200 µg/mL (≈ 10.2 mM)
- solubility ([1]; IPA): 2450 µg/mL (≈ 4.81 mM)
- solubility ([1]; MEK): 6080 µg/mL (≈ 11.9 mM)
- solubility ([1]; MIBK): 7400 µg/mL (≈ 14.5 mM)
- solubility ([1]; MeCN): 9160 µg/mL (≈ 18 mM)
- solubility ([1]; MeOH): 2520 µg/mL (≈ 4.95 mM)
- Solubility at 25° C. ([1]; Nitromethane): 20520 µg/mL (≈ 40.3 mM)
- Solubility at 25° C. ([1]; TBME): 700 µg/mL (≈ 1.37 mM)
- Solubility at 25° C. ([1]; THF): 33300 µg/mL (≈ 65.4 mM)
- Solubility at 25° C. ([1]; Water): 60 µg/mL (≈ 0.118 mM)
- solubility ([1]; benzotrifluoride): 160 µg/mL (≈ 0.314 mM)
- solubility ([1]; chlorobenzene): 1870 µg/mL (≈ 3.67 mM)
- solubility ([1]; iPrOAc): 6960 µg/mL (≈ 13.7 mM)
- solubility ([1]; toluene): 1120 µg/mL (≈ 2.2 mM)
- HPLC assessment post-compression (chemical stability) ([2]; compression for 7 days): significant chemical degradation
- HPLC assessment post-compression (chemical stability) ([2]; compression for ca. 1 day (23 / 23¾ hours), 10×10^4N): no discernible chemical degradation
- Observation ([3]; ID A1, THF/water, 4:1 10 vol., Heptane, 5 Hrs): Suspension
- Observation ([3]; ID A1, THF/water, 4:1 10 vol., Heptane, 22 Hrs): Suspension
- Observation ([3]; ID A1, THF/water, 4:1 10 vol., Heptane, Immediate): Gum
- Observation ([3]; ID A2, THF/water, 4:1 10 vol., Benzotrifluoride, 5 Hrs): Suspension
- Observation ([3]; ID A2, THF/water, 4:1 10 vol., Benzotrifluoride, 22 Hrs): Suspension
- Observation ([3]; ID A2, THF/water, 4:1 10 vol., Benzotrifluoride, Immediate): Suspension
- Observation ([3]; ID A3, THF/water, 4:1 10 vol., 2-Chlorobutane, 5 Hrs): Suspension
- Observation ([3]; ID A3, THF/water, 4:1 10 vol., 2-Chlorobutane, 22 Hrs): Suspension
- Observation ([3]; ID A3, THF/water, 4:1 10 vol., 2-Chlorobutane, Immediate): Suspension
- Observation ([3]; ID B1, THF 25 vol., Heptane, 5 Hrs): Suspension
- Observation ([3]; ID B1, THF 25 vol., Heptane, 22 Hrs): Suspension
- Observation ([3]; ID B1, THF 25 vol., Heptane, Immediate): Suspension
- Observation ([3]; ID B2, THF 25 vol., Benzotrifluoride, 5 Hrs): Suspension
- Observation ([3]; ID B2, THF 25 vol., Benzotrifluoride, 22 Hrs): Suspension
- Observation ([3]; ID B2, THF 25 vol., Benzotrifluoride, Immediate): Suspension
- Observation ([3]; ID B3, THF 25 vol., 2-Chlorobutane, 5 Hrs): Suspension
- Observation ([3]; ID B3, THF 25 vol., 2-Chlorobutane, 22 Hrs): Suspension
- Observation ([3]; ID B3, THF 25 vol., 2-Chlorobutane, Immediate): Suspension
- Observation ([3]; ID C1, Nitromethane 50 vol., Heptane, 5 Hrs): Bi. Susp.
- Observation ([3]; ID C1, Nitromethane 50 vol., Heptane, 22 Hrs): Bi. Susp.
- Observation ([3]; ID C1, Nitromethane 50 vol., Heptane, Immediate): Immiscible
- Observation ([3]; ID C2, Nitromethane 50 vol., Benzotrifluoride, 5 Hrs): Solution
- Observation ([3]; ID C2, Nitromethane 50 vol., Benzotrifluoride, 22 Hrs): Suspension
- Observation ([3]; ID C2, Nitromethane 50 vol., Benzotrifluoride, Immediate): Solution
- Observation ([3]; ID C3, Nitromethane 50 vol., 2-Chlorobutane, 5 Hrs): Solution
- Observation ([3]; ID C3, Nitromethane 50 vol., 2-Chlorobutane, 22 Hrs): Haze
- Observation ([3]; ID C3, Nitromethane 50 vol., 2-Chlorobutane, Immediate): Solution
- Observation ([3]; ID D1, MeCN/water, 4:1 55 vol., Heptane, 5 Hrs): Bi. Susp.
- Observation ([3]; ID D1, MeCN/water, 4:1 55 vol., Heptane, 22 Hrs): Bi. Susp.
- Observation ([3]; ID D1, MeCN/water, 4:1 55 vol., Heptane, Immediate): Immiscible
- Observation ([3]; ID D2, MeCN/water, 4:1 55 vol., Benzotrifluoride, 5 Hrs): Suspension
- Observation ([3]; ID D2, MeCN/water, 4:1 55 vol., Benzotrifluoride, 22 Hrs): Suspension
- Observation ([3]; ID D2, MeCN/water, 4:1 55 vol., Benzotrifluoride, Immediate): Haze
- Observation ([3]; ID D3, MeCN/water, 4:1 55 vol., 2-Chlorobutane, 5 Hrs): Suspension
- Observation ([3]; ID D3, MeCN/water, 4:1 55 vol., 2-Chlorobutane, 22 Hrs): Suspension
- Observation ([3]; ID D3, MeCN/water, 4:1 55 vol., 2-Chlorobutane, Immediate): Haze
- Crystalline Form fate by XRPD ([3]; MeCN/water, 4:1 55 vol., 2-Chlorobutane): Form B
- Crystalline Form fate by XRPD ([3]; MeCN/water, 4:1 55 vol., Benzotrifluoride): Form B
- Crystalline Form fate by XRPD ([3]; MeCN/water, 4:1 55 vol., Heptane): Form A
- Crystalline Form fate by XRPD ([3]; Nitromethane 50 vol., 2-Chlorobutane): Form B/C mix
- Crystalline Form fate by XRPD ([3]; Nitromethane 50 vol., Benzotrifluoride): Form C
- Crystalline Form fate by XRPD ([3]; Nitromethane 50 vol., Heptane): Form C
- Crystalline Form fate by XRPD ([3]; THF 25 vol., 2-Chlorobutane): Low cryst. Form C
- Crystalline Form fate by XRPD ([3]; THF 25 vol., Benzotrifluoride): Low cryst. Form B
- Crystalline Form fate by XRPD ([3]; THF 25 vol., Heptane): Low cryst. Form B +
- Crystalline Form fate by XRPD ([3]; THF/water, 4:1 10 vol., 2-Chlorobutane): Low cryst. Form B
- Crystalline Form fate by XRPD ([3]; THF/water, 4:1 10 vol., Benzotrifluoride): Low cryst. Form B
- Crystalline Form fate by XRPD ([3]; THF/water, 4:1 10 vol., Heptane): Low cryst. Form B
Compound: NC(=O)c1nc(-c2c(Cl)cccc2Cl)oc1Nc1ccc(C(=O)N2CCS(=O)(=O)CC2)cc1 [Form A, 2-(2,6-dichlorophenyl)-5-[4-(1,1-dioxo-1,4-thiazinane-4-carbonyl)anilino]oxazole-4-carboxamide]
- XRPD examination of solids isolated post-compression (form fate) ([2]; compression for both ca. 1 and 7 days): diffraction pattern matching the input Form A but of reduced diffraction resolution
